Results from patent US12448394B2, “Heterocyclic pyrazole derivatives as type III receptor tyrosine kinase inhibitors” (DEVELOPMENT CENTER FOR BIOTECHNOLOGY, priority 2019, dated 2025).
pIC50: −log10 of the molar value.

Legend:
FLT3-D835Y mutant kinase = biological target: T1, FLT3-D835Y mutant kinase (Homo sapiens, UniProt P36888, D835Y); assay: FLT3-D835Y mutant kinase assay (AlphaScreen); type: biochemical; details: read-out: Ranking of IC50 values, FLT3-D835Y
T1 construct: purchased SignalChem
T1 sequence (P36888 27-993 D835Y): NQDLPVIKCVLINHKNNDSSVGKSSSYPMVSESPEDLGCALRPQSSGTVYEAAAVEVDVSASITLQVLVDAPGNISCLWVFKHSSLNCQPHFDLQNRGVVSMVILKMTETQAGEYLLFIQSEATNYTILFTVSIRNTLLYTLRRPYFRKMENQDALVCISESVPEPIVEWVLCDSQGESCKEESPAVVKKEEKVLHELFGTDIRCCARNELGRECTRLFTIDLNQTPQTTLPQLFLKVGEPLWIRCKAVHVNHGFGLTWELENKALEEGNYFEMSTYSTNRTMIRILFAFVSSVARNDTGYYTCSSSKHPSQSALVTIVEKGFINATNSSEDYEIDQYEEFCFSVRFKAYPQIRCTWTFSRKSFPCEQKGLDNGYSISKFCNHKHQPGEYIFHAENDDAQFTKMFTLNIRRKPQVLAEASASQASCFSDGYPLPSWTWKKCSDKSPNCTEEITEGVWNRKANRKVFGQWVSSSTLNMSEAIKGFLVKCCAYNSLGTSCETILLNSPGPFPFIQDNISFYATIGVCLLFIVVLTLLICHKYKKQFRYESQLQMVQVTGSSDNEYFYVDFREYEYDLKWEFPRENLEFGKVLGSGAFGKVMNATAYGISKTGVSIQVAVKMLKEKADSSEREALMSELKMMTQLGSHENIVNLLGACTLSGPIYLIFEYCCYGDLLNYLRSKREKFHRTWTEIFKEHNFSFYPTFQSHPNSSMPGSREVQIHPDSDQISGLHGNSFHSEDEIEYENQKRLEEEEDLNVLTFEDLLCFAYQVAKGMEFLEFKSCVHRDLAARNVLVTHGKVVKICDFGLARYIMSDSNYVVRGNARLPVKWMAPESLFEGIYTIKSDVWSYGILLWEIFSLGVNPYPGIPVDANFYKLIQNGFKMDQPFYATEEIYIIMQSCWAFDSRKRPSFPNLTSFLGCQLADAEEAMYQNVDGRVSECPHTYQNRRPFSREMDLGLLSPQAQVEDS
Procedure: Inhibition of FLT3-D835Y mutant kinase activity by a test compound disclosed herein was estimated by AlphaScreen (PerkinElmer). Standard assay conditions were 1 ng of recombinant FLT3-D835Y mutant kinase (SignalChem) with 6 ng Biotin-conjugated Poly-(Glu 4: Tyr 1) (Cisbio) in the assay buffer (10 μM ATP, 10 mM MOPs, pH7.0, 0.21 mM EDTA, 0.5% glycerol, 1 mg/mL BSA, 0.01% 2-mercaptoethanol, 0.001% Brij35, 10 mM MgCl2) in a final volume of 25 μL. Reactions were incubated at 30° C. for 30 min and stopped by adding 5 μL of 50 mM EDTA. Analysis of resulting product using an AlphaScreen kit and counted with Enspire Alpha (PerkinElmer). […] The IC50 values of inhibitors were determined after carrying out assays with each compound at serially diluted concentrations in duplication. The results were analyzed using linear regression software (GraphPad Prism 5; GraphPad Software Inc.)

PDGFRα kinase = biological target: T2, PDGFRα kinase (Homo sapiens, UniProt P16234); assay: PDGFRα kinase assay (AlphaScreen); type: biochemical; details: read-out: Ranking of IC50 values, PDGFRα
T2 construct: purchased SignalChem
T2 sequence (P16234 24-1089): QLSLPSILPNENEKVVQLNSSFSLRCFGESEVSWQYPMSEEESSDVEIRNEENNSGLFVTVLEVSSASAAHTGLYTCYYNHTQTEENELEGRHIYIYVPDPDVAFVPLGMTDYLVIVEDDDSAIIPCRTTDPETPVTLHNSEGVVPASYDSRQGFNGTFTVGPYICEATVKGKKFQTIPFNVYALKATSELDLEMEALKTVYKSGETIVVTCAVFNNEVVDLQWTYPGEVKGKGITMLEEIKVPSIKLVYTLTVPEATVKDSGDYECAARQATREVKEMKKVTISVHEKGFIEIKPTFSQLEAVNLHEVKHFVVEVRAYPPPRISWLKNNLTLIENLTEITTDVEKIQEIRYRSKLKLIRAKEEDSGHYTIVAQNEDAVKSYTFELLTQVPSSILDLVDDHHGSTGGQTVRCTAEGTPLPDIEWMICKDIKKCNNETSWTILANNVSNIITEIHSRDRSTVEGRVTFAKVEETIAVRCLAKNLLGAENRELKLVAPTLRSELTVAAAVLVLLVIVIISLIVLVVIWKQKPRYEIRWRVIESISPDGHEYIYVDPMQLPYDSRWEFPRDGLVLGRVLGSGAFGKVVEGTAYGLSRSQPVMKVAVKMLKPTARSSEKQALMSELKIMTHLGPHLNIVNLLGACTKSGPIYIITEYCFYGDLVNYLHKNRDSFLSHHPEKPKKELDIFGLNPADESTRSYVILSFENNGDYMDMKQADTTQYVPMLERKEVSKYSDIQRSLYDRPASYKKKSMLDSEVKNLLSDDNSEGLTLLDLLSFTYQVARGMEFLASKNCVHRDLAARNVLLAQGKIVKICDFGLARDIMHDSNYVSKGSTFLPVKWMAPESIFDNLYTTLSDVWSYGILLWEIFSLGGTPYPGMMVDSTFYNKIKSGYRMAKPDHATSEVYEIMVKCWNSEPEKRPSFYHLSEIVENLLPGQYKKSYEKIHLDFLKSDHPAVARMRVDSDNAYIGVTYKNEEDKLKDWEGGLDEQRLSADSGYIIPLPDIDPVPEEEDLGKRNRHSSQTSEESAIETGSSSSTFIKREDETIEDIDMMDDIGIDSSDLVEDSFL
Procedure: Inhibition of PDGFRα kinase activity by a test compound disclosed herein was estimated by AlphaScreen (PerkinElmer). Standard assay conditions were 1.5 ng of recombinant PDGFRα kinase (SignalChem) with 6 ng Biotin-conjugated Poly-(Glu 4: Tyr 1) (Cisbio) in the assay buffer (10 μM ATP, 10 mM MOPs, pH 7.0, 0.21 mM EDTA, 0.5% glycerol, 1 mg/mL BSA, 0.01% 2-mercaptoethanol, 0.001% Brij35, 10 mM MgCl2) in a final volume of 25 μL. Reactions were incubated at 30° C. for 30 min and stopped by adding […] of 50 mM EDTA. Analysis of resulting product using an AlphaScreen kit and counted with Enspire Alpha (PerkinElmer). […] The IC50 values of inhibitors were determined after carrying out assays with each compound at serially diluted concentrations in duplication. The results were analyzed using linear regression software (GraphPad Prism 5; GraphPad Software Inc.)

[1] = system: MV4-11 human acute myeloid leukemia cell with FLT3-ITD mutation; assay: MV4-11 cell proliferation assay (CellTiter 96); type: cell-based; details: Homo sapiens, MV4-11, 72 h, MV4-11 cells, 72 hours treatment, CellTiter96; read-out: anti-proliferation activity MV4-11 (FLT3-ITD), IC50 ranking
Procedure: Inhibitions of cell growths by compounds were measured using CellTiter™-96 assay. The cytotoxicities of compounds of the invention were evaluated in cell line panels with different signaling pathway dependencies, including MV4-11 human acute myeloid leukemia cell with FLT3-ITD mutation, Molm-14 human acute myeloid leukemia cell with FLT3-ITD mutation, THP-1 human acute monocytic leukemia cell with NRAS G12D mutation, A375 melanoma cell with BRAF V600E mutation, and HCC827 NSCLC cell with EGFR exon 19 deletion mutation.
The compounds disclosed herein were tested in MV4-11 cell proliferation assay to determine their cellular potencies against FLT3 signal pathway dependent cell growths. MV4-11 cells are human acute myeloid leukemia (AML) cells harboring ligand-independent FLT3-ITD activating mutation, which renders the abnormal proliferation of AML cells FLT3 signaling pathway dependent. Inhibition of FLT3 kinase activity will result in reduced growths and/or cell deaths. MV4-11 cells (catalog #CRL-9591) were obtained from the American Type Culture Collection (ATCC, Manassas, VA). Briefly, cells were grown in IMDM medium supplemented with 10% heat inactivated fetal bovine serum and incubated at 37° C. in 5% CO2 atmosphere. Cells were allowed to expand until reaching saturation, at which point they were sub-cultured or harvested for assay use.
MV4-11, Molm-14, THP-1, A375, and HCC827 cells were seeded into 96-well plates at 6500, 25000, 5000, 2000 and 8000 cells/well, respectively, and incubated at 37° C., 5% CO2 overnight. Then, these seeded cells were treated with increasing concentrations of the test compounds and incubated for another 72 hours. At the end of the incubation, CellTiter96® AQueous One Solution Reagent (Promega, […]) was added and incubated for the additional 2˜4 hours. Cell viability was determined by measuring absorbance at 490 nm using EMax® microplate reader (Molecular Devices, San Jose, CA, USA).

A pIC50 (FLT3-D835Y mutant kinase) of over 9.00, a pIC50 (PDGFRα kinase) of 8.00 to 9.00 and a pIC50 [1] of over 7.52 were found for Cn1ncc2ccc(-c3n[nH]c4c3Cc3sc(-c5csc(C(=O)N6CCOCC6)c5)cc3-4)cc21 [Compound 48, (4-(3-(1-methyl-1H-indazol-6-yl)-1,4-dihydro-thieno[2′,3′:4,5]cyclopenta [1,2-c]pyrazol-6-yl)thiophen-2-yl) (morpholino)methanone] in this work.
A pIC50 (FLT3-D835Y mutant kinase) of over 9.00, a pIC50 (PDGFRα kinase) of under 6.00 and a pIC50 [1] of over 7.52 were found for Cn1ncc2ccc(-c3n[nH]c4c3Cc3sc(-c5ccc(CCN6CCOCC6=O)cc5)cc3-4)cc21 [Compound 66, 4-(4-(3-(1-methyl-1H-indazol-6-yl)-1,4-dihydro-thieno[2′,3′:4,5]cyclopenta [1,2-c]pyrazol-6-yl)phenethyl)morpholin-3-one] in this work.
A pIC50 (FLT3-D835Y mutant kinase) of over 9.00, a pIC50 (PDGFRα kinase) of 8.00 to 9.00 and a pIC50 [1] of over 7.52 were found for Cn1ncc2ccc(-c3n[nH]c4c3Cc3sc(-c5csc(C(=O)N6CCOCC6)n5)cc3-4)cc21 [Compound 60, (4-(3-(1-methyl-1H-indazol-6-yl)-1,4-dihydro-thieno[2′,3′:4,5]cyclopenta [1,2-c]pyrazol-6-yl)thiazol-2-yl)(morpholino) methanone] in this work.
A pIC50 (FLT3-D835Y mutant kinase) of over 9.00, a pIC50 (PDGFRα kinase) of 8.00 to 9.00 and a pIC50 [1] of over 7.52 were found for C[C@@H]1CN(Cc2ccc(-c3cc4c(s3)Cc3c(-c5ccc6cnn(C)c6c5)n[nH]c3-4)cn2)C[C@H](C)O1 [Compound 9, (2S,6R)-2,6-dimethyl-4-((5-(3-(1-methyl-lH-indazol-6-yl)-1,4-dihydro-thieno[2′,3′:4,5]cyclopenta [1,2-c]pyrazol-6-yl)pyridin-2-yl)methyl) morpholine] in this work.
A pIC50 (FLT3-D835Y mutant kinase) of over 9.00, a pIC50 (PDGFRα kinase) of 7.00 to 7.52 and a pIC50 [1] of over 7.52 were found for Cn1ncc2ccc(-c3n[nH]c4c3Cc3sc(-c5ccc(CN6CCCOCC6)cc5)cc3-4)cc21 [Compound 97, 4-(4-(3-(1-methyl-1H-indazol-6-yl)-1,4-dihydro-thieno[2′,3′:4,5]cyclopenta [1,2-c]pyrazol-6-yl)benzyl)-1,4-oxazepane] in this work.
A pIC50 (FLT3-D835Y mutant kinase) of over 9.00, a pIC50 (PDGFRα kinase) of 8.00 to 9.00 and a pIC50 [1] of over 7.52 were found for Cn1ncc2ccc(-c3n[nH]c4c3Cc3sc(-c5ccc(CN6CCC6)cc5)cc3-4)cc21 [Compound 103, 6-(4-(azetidin-1-ylmethyl)phenyl)-3-(1-methyl-1H-indazol-6-yl)-1,4-dihydro-thieno[2′,3′:4,5]cyclopenta [1,2-c]pyrazole] in this work.
A pIC50 (FLT3-D835Y mutant kinase) of over 9.00, a pIC50 (PDGFRα kinase) of 8.00 to 9.00 and a pIC50 [1] of over 7.52 were found for Cn1ncc2ccc(-c3n[nH]c4c3Cc3sc(-c5ccc(CN6CCCCC6)cc5)cc3-4)cc21 [Compound 100, 3-(1-methyl-1H-indazol-6-yl)-6-(4-(piperidin-1-ylmethyl)phenyl)-1,4-dihydrothieno[2′,3′:4,5] cyclopenta[1,2-c]pyrazole] in this work.
A pIC50 (FLT3-D835Y mutant kinase) of over 9.00, a pIC50 (PDGFRα kinase) of 8.00 to 9.00 and a pIC50 [1] of over 7.52 were found for Cn1ncc2ccc(-c3n[nH]c4c3Cc3sc(-c5ccc(CN6CCOCC6=O)cc5)cc3-4)cc21 [Compound 59, 4-(4-(3-(1-methyl-1H-indazol-6-yl)-1,4-dihydro-thieno[2′,3′:4,5]cyclopenta [1,2-c]pyrazol-6-yl)benzyl)morpholin-3-one] in this work.
A pIC50 (FLT3-D835Y mutant kinase) of 8.00 to 9.00, a pIC50 (PDGFRα kinase) of 7.00 to 7.52 and a pIC50 [1] of 6.52 to 7.00 were found for CC(C)Cn1ncc2ccc(-c3n[nH]c4c3Cc3sc(-c5ccc(CN6CCOCC6)cc5)cc3-4)cc21 [Compound 35, 4-(4-(3-(1-isobutyl-1H-indazol-6-yl)-1,4-dihydro-thieno[2′,3′:4,5]cyclopenta [1,2-c]pyrazol-6-yl)benzyl)morpholine] in this work.
A pIC50 (FLT3-D835Y mutant kinase) of over 9.00 and a pIC50 (PDGFRα kinase) of 8.00 to 9.00 were found for Cn1ncc2ccc(-c3n[nH]c4c3Cc3sc(-c5ccc(CN6CCOCC6)cn5)cc3-4)cc21 [Compound 95, 4-((6-(3-(1-methyl-1H-indazol-6-yl)-1,4-dihydro-thieno[2′,3′:4,5]cyclopenta [1,2-c]pyrazol-6-yl)pyridin-3-yl)methyl) morpholine] in this work.
